≈ marks a conversion by molar mass, not a printed value. Where “and” joins values, the source holds several entries; their conditions need not be identical. Equal values may be shown once. Read-outs that look alike come from different tables or passages of the source.
Key:
[1] = system: voltage-dependent Ca2+ channels (isolated rat ileum); experiment: Calcium antagonism: relaxation of K+; details: K+ (80 mM)-induced contractions of rat ileum; mean ± SD, three independent experiments
[2] = molecular target: ACE2:SARS-CoV-2 Spike (RBD) (Homo sapiens, UniProt Q9BYF1); experiment: biochemical; assay type: binding
[3] = system: PMA-differentiated THP-1 cells; experiment: PMA-differentiated THP-1 cell viability assay; assay type: cell-based; details: Homo sapiens, THP-1, 24 h
Male Wistar albino rats = assay type: in vivo, rat; details: mean arterial BP compared to the control group
[4] = system: IL-6 production in LPS-stimulated THP-1 cells; experiment: IL-6 production by LPS-stimulated PMA-differentiated THP-1 cells; assay type: cell-based, human; details: compared to LPS (positive control); for Reduction of IL-6 level: compound at 1/4 IC50, added 2 h prior to LPS 0.5 μg/mL, 24 h
[5] = system: CRP production in LPS-stimulated THP-1 cells; experiment: CRP production by LPS-stimulated PMA-differentiated THP-1 cells; assay type: cell-based, human; details: compared to LPS (positive control); for Effect on CRP level (in words): compound at 1/4 IC50, LPS 0.5 μg/mL

ACE2:SARS-CoV-2 Spike (RBD), sequence (Q9BYF1 18-740): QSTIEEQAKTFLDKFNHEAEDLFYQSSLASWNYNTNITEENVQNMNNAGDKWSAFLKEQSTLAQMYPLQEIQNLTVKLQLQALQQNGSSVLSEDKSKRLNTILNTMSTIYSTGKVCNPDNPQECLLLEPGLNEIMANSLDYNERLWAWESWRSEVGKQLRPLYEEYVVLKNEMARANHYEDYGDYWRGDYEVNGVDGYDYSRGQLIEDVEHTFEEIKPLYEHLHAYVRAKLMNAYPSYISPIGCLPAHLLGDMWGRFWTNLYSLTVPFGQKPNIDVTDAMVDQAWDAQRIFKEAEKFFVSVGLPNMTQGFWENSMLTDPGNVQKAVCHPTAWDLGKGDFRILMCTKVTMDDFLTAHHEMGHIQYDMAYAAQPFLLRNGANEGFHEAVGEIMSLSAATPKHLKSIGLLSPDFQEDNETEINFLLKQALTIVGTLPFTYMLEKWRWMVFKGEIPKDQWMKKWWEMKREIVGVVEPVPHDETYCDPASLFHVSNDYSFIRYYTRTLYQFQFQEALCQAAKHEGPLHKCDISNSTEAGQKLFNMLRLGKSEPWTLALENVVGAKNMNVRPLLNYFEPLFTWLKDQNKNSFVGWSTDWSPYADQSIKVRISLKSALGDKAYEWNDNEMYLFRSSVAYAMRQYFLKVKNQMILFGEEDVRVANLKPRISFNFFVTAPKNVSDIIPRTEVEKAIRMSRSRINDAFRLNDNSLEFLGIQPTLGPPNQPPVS

| SMILES | IC50 [1] [µg/mL] | IC50 [2] | IC50 [3] [µg/mL] | IC50 ([3]; read-out: IC50 µM) [µM] | % reduction in BP (Male Wistar albino rats) | Reduction of IL-6 level [4] | Effect on CRP level (in words) [5] | Effect on IL-6 level (in words) ([4]; compound at 1/4 IC50, LPS 0.5 μg/mL) | Decrease in the level of CRP ([5]; compound at 1/4 IC50, added 2 h prior to LPS 0.5 μg/mL, 24 h) |
| --- | --- | --- | --- | --- | --- | --- | --- | --- | --- |
| CCOC(=O)C1=C(C)NC(=S)NC1c1ccccc1C#N (stereo not shown) [Compound 4a, Ethyl-4-(2-cyanophenyl)-6-methyl-2-thioxo-1,2,3,4-tetrahydropyrimidine-5-carboxylate] | 23.07 ± 1.53 (≈ 76.6 µM) | 8.5 ± 0.92 nM | 1550 ± 134 | 533 | – | – | – | – | – |
| CCOC(=O)C1=C(C)NC(=S)NC1c1ccccc1Br (stereo not shown) [Compound 4c, Ethyl-4-(2-bromophenyl)-6-methyl-2-thioxo-1,2,3,4-tetrahydropyrimidine-5-carboxylate] | 23.62 ± 2.33 (≈ 66.5 µM) | 23 ± 1 nM | – | – | about 21% | – | – | – | – |
| CC1=C(C(=O)Cl)C(c2ccccc2C#N)NC(=S)N1 (stereo not shown) [Compound 6a, 6-Methyl-4-(2-cyanophenyl)-2-thioxo-1,2,3,4-tetrahydropyrimidine-5-carbonyl chloride] | 26.84 ± 1.51 | 17.5 ± 1.31 nM | – | – | – | – | – | – | – |
| CC1=C(C(=O)O)C(c2ccccc2C#N)NC(=S)N1 (stereo not shown) [Compound 5a, 4-(2-cyanophenyl)-6-methyl-2-thioxo-1,2,3,4-tetrahydropyrimidine-5-carboxylic acid] | 24.37 ± 1.45 (≈ 89.2 µM) | 9.8 ± 1.06 nM | 496 ± 38.7 | 118 | – | about 56% | moderate decrease | – | – |
| CC1=C(C(=O)Cl)C(c2ccccc2Br)NC(=S)N1 (stereo not shown) [Compound 6c, 6-Methyl-4-(2-bromophenyl)-2-thioxo-1,2,3,4-tetrahydropyrimidine-5-carbonyl chloride] | 29.73 ± 2.44 | 16.5 ± 1.08 nM | – | – | – | – | – | – | – |
| CC1=C(C(=O)Nc2ccc(F)cc2)C(c2ccccc2C#N)NC(=S)N1 (stereo not shown) [Compound 7c, 4-(2-cyanophenyl)-6-methyl-N-(4–fluorophenyl)-2-thioxo-1,2,3,4-tetrahydropyrimidine-5-carboxamide] | 22.85 ± 1.11 (≈ 62.4 µM) | 20.1 ± 1.1 nM | – | – | – | – | – | – | – |
| CC1=C(C(=O)Nc2ccc(C)cc2)C(c2ccccc2C#N)NC(=S)N1 (stereo not shown) [Compound 7b, 4-(2-cyanophenyl)-6-methyl-N-(4-methylphenyl)-2-thioxo-1,2,3,4-tetrahydropyrimidine-5-carboxamide] | 22.81 ± 2.46 (≈ 62.9 µM) | 10.8 ± 0.75 nM | 222 ± 10.1 | 61 | – | 47% | moderate decrease | – | – |
| CC1=C(C(=O)Nc2ccccc2)C(c2ccccc2C#N)NC(=S)N1 (stereo not shown) [Compound 7a, 4-(2-cyanophenyl)-6-methyl-N-phenyl-2-thioxo-1,2,3,4-tetrahydropyrimidine-5-carboxamide] | 19.65 ± 1.60 (≈ 56.4 µM) | 11.6 ± 0.94 nM | 434 ± 32.9 | 123 | up to 29% | – | – | lowest effect | – |
| CC1=C(C(=O)Nc2ccccc2)C(c2ccccc2Br)NC(=S)N1 (stereo not shown) [Compound 9a, 4-(2-bromophenyl)-6-methyl-N-phenyl-2-thioxo-1,2,3,4-tetrahydropyrimidine-5-carboxamide] | 21.45 ± 2.55 (≈ 53.3 µM) | 13.7 ± 1.37 nM | 484.9 ± 3.24 | 116 | 27% | ~79% | – | – | about 95% |
| CC1=C(C(=O)Cl)C(c2ccccc2Cl)NC(=S)N1 (stereo not shown) [Compound 6b, 6-Methyl-4-(2-chlorophenyl)-2-thioxo-1,2,3,4-tetrahydropyrimidine-5-carbonyl chloride] | 30.78 ± 2.52 | 23.7 ± 1.35 nM | – | – | – | – | – | – | – |
| CC1=C(C(=O)O)C(c2ccccc2Cl)NC(=S)N1 (stereo not shown) [Compound 5b, 4-(2-chlorophenyl)-6-Methyl-2-thioxo-1,2,3,4-tetrahydropyrimidine-5-carboxylic acid] | 25.25 ± 1.39 (≈ 89.3 µM) | ~12.5 nM and 12.5 nM | 967 ± 79.2 | 342 | – | – | – | – | – |
| CC1=C(C(=O)Nc2ccc(C)cc2)C(c2ccccc2Cl)NC(=S)N1 (stereo not shown) [Compound 8b, 4-(2-chlorophenyl)-6-methyl-N-(4-methylphenyl)-2-thioxo-1,2,3,4-tetrahydropyrimidine-5-carboxamide] | 22.91 ± 2.59 (≈ 61.6 µM) | 19.2 ± 1.11 nM | – | – | – | – | – | – | – |
| CC1=C(C(=O)Nc2ccccc2)C(c2ccccc2Cl)NC(=S)N1 (stereo not shown) [Compound 8a, 4-(2-chlorophenyl)-6-methyl-N-phenyl-2-thioxo-1,2,3,4-tetrahydropyrimidine-5-carboxamide] | 20.23 ± 1.79 (≈ 56.5 µM) | 10.6 ± 0.61 nM | 464 ± 29.7 | 125 | up to 29% | – | – | – | – |
| CCOC(=O)C1=C(C)NC(=S)NC1c1ccccc1Cl (stereo not shown) [Compound 4b, Ethyl-4-(2-chlorophenyl)-6-methyl-2-thioxo-1,2,3,4-tetrahydropyrimidine-5-carboxylate] | 24.69 ± 2.35 (≈ 79.4 µM) | ~12.5 nM and 12.5 nM | 698 ± 65.6 | 231 | – | – | – | – | – |
